Measurements published in US7381744B1, “Method of treating osteoporosis comprising vacuolar-type (H+)-ATPase-inhibiting compounds” (The United States of America as represented by the …, priority 1999, dated 2008).

Tests used:
HCT-15 = test: NCI 60 cell-line screen; type: cell-based; conditions: Homo sapiens, Colon, averaged, quadruplicate testing, read-out: negative log10 GI50 (converted)
Source text: (§1) It is the concentration where 100×(T−To)/To=−50=PG. […] Res., 34, 91-109 (1995).

SNB-75 = test: NCI 60 cell-line screen; type: cell-based; conditions: Homo sapiens, Brain, averaged, quadruplicate testing, read-out: negative log10 GI50 (converted)
Source text: as §1

RXF-393 = test: NCI 60 cell-line screen; type: cell-based; conditions: Homo sapiens, Kidney, averaged, quadruplicate testing, read-out: negative log10 GI50 (converted)
Source text: as §1

NCI-H322M = test: NCI 60 cell-line screen; type: cell-based; conditions: Homo sapiens, Lung, averaged, quadruplicate testing, read-out: negative log10 GI50 (converted)
Source text: as §1

OVCAR-4 = test: NCI 60 cell-line screen; type: cell-based; conditions: Homo sapiens, Ovary, averaged, quadruplicate testing, read-out: negative log10 GI50 (converted)
Source text: as §1

SR = test: NCI 60 cell-line screen; type: cell-based; conditions: Homo sapiens, Leukemia, averaged, quadruplicate testing, read-out: negative log10 GI50 (converted)
Source text: as §1

A549/ATCC = test: NCI 60 cell-line screen; type: cell-based; conditions: Homo sapiens, Lung, averaged, quadruplicate testing, read-out: negative log10 GI50 (converted)
Source text: as §1

SK-MEL-28 = test: NCI 60 cell-line screen; type: cell-based; conditions: Homo sapiens, Melanoma, averaged, quadruplicate testing, read-out: negative log10 GI50 (converted)
Source text: as §1

SN-12C = test: NCI 60 cell-line screen; type: cell-based; conditions: Homo sapiens, SN12C, Kidney, averaged, quadruplicate testing, read-out: negative log10 GI50 (converted)
Source text: as §1

K-562 = test: NCI 60 cell-line screen; type: cell-based; conditions: Homo sapiens, K562, Leukemia, averaged, quadruplicate testing, read-out: negative log10 GI50 (converted)
Source text: as §1

LOX-IMVI = test: NCI 60 cell-line screen; type: cell-based; conditions: Homo sapiens, Melanoma, averaged, quadruplicate testing, read-out: negative log10 GI50 (converted)
Source text: as §1

OVCAR-8 = test: NCI 60 cell-line screen; type: cell-based; conditions: Homo sapiens, Ovary, averaged, quadruplicate testing, read-out: negative log10 GI50 (converted)
Source text: as §1

EKVX = test: NCI 60 cell-line screen; type: cell-based; conditions: Homo sapiens, Lung, averaged, quadruplicate testing, read-out: negative log10 GI50 (converted)
Source text: as §1

M14 = test: NCI 60 cell-line screen; type: cell-based; conditions: Homo sapiens, Melanoma, averaged, quadruplicate testing, read-out: negative log10 GI50 (converted)
Source text: as §1

OVCAR-3 = test: NCI 60 cell-line screen; type: cell-based; conditions: Homo sapiens, Ovary, averaged, quadruplicate testing, read-out: negative log10 GI50 (converted)
Source text: as §1

MCF-7 = test: NCI 60 cell-line screen; type: cell-based; conditions: Homo sapiens, MCF7, Breast, averaged, quadruplicate testing, read-out: negative log10 GI50 (converted)
Source text: as §1

SW-620 = test: NCI 60 cell-line screen; type: cell-based; conditions: Homo sapiens, Colon, averaged, quadruplicate testing, read-out: negative log10 GI50 (converted)
Source text: as §1

U251 = test: NCI 60 cell-line screen; type: cell-based; conditions: Homo sapiens, U-251, Brain, averaged, quadruplicate testing, read-out: negative log10 GI50 (converted)
Source text: as §1

MDA-MB-435 = test: NCI 60 cell-line screen; type: cell-based; conditions: Homo sapiens, Breast, averaged, quadruplicate testing, read-out: negative log10 GI50 (converted)
Source text: as §1

DU-145 = test: NCI 60 cell-line screen; type: cell-based; conditions: Homo sapiens, Prostate, averaged, quadruplicate testing, read-out: negative log10 GI50 (converted)
Source text: as §1

IGROV1 = test: NCI 60 cell-line screen; type: cell-based; conditions: Homo sapiens, IGROV-1, Ovary, averaged, quadruplicate testing, read-out: negative log10 GI50 (converted)
Source text: as §1

MOLT-4 = test: NCI 60 cell-line screen; type: cell-based; conditions: Homo sapiens, Leukemia, averaged, quadruplicate testing, read-out: negative log10 GI50 (converted)
Source text: as §1

BT-549 = test: NCI 60 cell-line screen; type: cell-based; conditions: Homo sapiens, Breast, averaged, quadruplicate testing, read-out: negative log10 GI50 (converted)
Source text: as §1

HOP-62 = test: NCI 60 cell-line screen; type: cell-based; conditions: Homo sapiens, Lung, averaged, quadruplicate testing, read-out: negative log10 GI50 (converted)
Source text: as §1

RPMI-8226 = test: NCI 60 cell-line screen; type: cell-based; conditions: Homo sapiens, Leukemia, averaged, quadruplicate testing, read-out: negative log10 GI50 (converted)
Source text: as §1

MDA-N = test: NCI 60 cell-line screen; type: cell-based; conditions: Homo sapiens, Breast, averaged, quadruplicate testing, read-out: negative log10 GI50 (converted)
Source text: as §1

UACC-62 = test: NCI 60 cell-line screen; type: cell-based; conditions: Homo sapiens, Melanoma, averaged, quadruplicate testing, read-out: negative log10 GI50 (converted)
Source text: as §1

MDA-MB-231/ATCC = test: NCI 60 cell-line screen; type: cell-based; conditions: Homo sapiens, Breast, averaged, quadruplicate testing, read-out: negative log10 GI50 (converted)
Source text: as §1

A498 = test: NCI 60 cell-line screen; type: cell-based; conditions: Homo sapiens, Kidney, averaged, quadruplicate testing, read-out: negative log10 GI50 (converted)
Source text: as §1

UO-31 = test: NCI 60 cell-line screen; type: cell-based; conditions: Homo sapiens, Kidney, averaged, quadruplicate testing, read-out: negative log10 GI50 (converted)
Source text: as §1

SF-539 = test: NCI 60 cell-line screen; type: cell-based; conditions: Homo sapiens, Brain, averaged, quadruplicate testing, read-out: negative log10 GI50 (converted)
Source text: as §1

[1] = system: fungal vacuolar-type (H+)-ATPase (from Neurospora crassa); test: fungal vacuolar-type (H+)-ATPase inhibition, side-by-side test; type: biochemical
Source text: The inhibitory data were obtained using the same procedures and biological preparations described in Bowman et al., Proc. Natl. Acad. Sci. USA, 85, 7972-7976 (November 1988).

[2] = system: vacuolar-type (H+)-ATPase derived from human kidney cells (hK); test: vacuolar-type (H+)-ATPase inhibition assay, membrane vesicles (hK); type: biochemical; conditions: bafilomycin-sensitive activity; oligomycin 5 μg/ml and vanadate 1 mM present; 37°, 30 minutes
Experimental: Inhibition of bafilomycin-sensitive vacuolar-type (H+)-ATPase activity was measured in partially purified membrane vesicle preparations from human osteoclastoma cells (hOc), human renal cortical cells (hK), and macrophage cells (J774). The vesicles were prepared by appropriate adaptations of methods described in Gagliardi et al., J. Med. Chem., 41, 1568-1573 (1998); and Gagliardi et al., J. Med. Chem., 41, 1883-1893 (1998).
Vacuolar-type (H+)-ATPase assays were performed in the presence of oligomycin (5 μg/ml) and vanadate (1 mM) as inhibitors of F- and P-ATPases, respectively. A […] method was used to quantitate the residual bafilomycin-sensitive vacuolar-type (H+)-ATPase activity (see Chan et al., Anal. Biochem., 157, 375-380 (1986)). The assay measures the release of inorganic phosphate from ATP at 37° during 30 minutes of incubation. The reaction is initiated by the addition of MgSO4 ([…]).

## CC/C=C\C=C/C(=O)N/C=C/CC1CC(O)C(C)C/C=C/Cc2cccc(O)c2C(=O)O1 (stereo not drawn) [salicylihalamide A]
HCT-15
  GI50: 3.63 nM
SNB-75
  GI50: 617 nM
RXF-393
  GI50: 0.851 nM
NCI-H322M
  GI50: 191 nM
OVCAR-4
  GI50: 5.01 µM
SR
  GI50: 3.63 nM
A549/ATCC
  GI50: 2.88 nM
SK-MEL-28
  GI50: 100 nM
SN-12C
  GI50: 17 nM
K-562
  GI50: 3.89 nM
LOX-IMVI
  GI50: 0.776 nM
OVCAR-8
  GI50: 3.72 nM
EKVX
  GI50: 30.2 nM
M14
  GI50: 1.2 nM
OVCAR-3
  GI50: 93.3 nM
MCF-7
  GI50: 75.9 nM
SW-620
  GI50: 28.8 nM
U251
  GI50: 26.9 nM
MDA-MB-435
  GI50: 15.1 nM
DU-145
  GI50: 5.5 nM
IGROV1
  GI50: 12.9 nM
MOLT-4
  GI50: 11 nM
BT-549
  GI50: 0.501 nM
HOP-62
  GI50: 4.17 nM
RPMI-8226
  GI50: 12.9 nM
MDA-N
  GI50: 10 nM
UACC-62
  GI50: 4.17 nM
MDA-MB-231/ATCC
  GI50: 120 nM
A498
  GI50: 282 nM
UO-31
  GI50: 4.9 nM
SF-539
  GI50: 12.9 nM
[1]
  inhibitory activity against fungal vacuolar-type (H+)-ATPase: little or no inhibitory activity
[2]
  IC50: 0.3 nM
